The source of these data is patent US20230266302A1, “SYNTHESIS AND USE OF N-BENZYL SULFONAMIDES” (THE UNIVERSITY OF TULSA, priority 2020, published 2023).

The first assay deals with MCF7 (breast cancer). Nature of the assay: ATP level assay (CellTiter-Glo), percent of control. The assay is classed as cell-based. As to conditions: compound 100 uM + 2DG (about 10-20 mM), two hour incubation. From the text:
(§1) In the present method, the method of using the available assays has been modified to measure the short-term effect of compounds of interest on ATP levels in the cells. […] In the modified method, the control and test cells are initially treated with the metabolic inhibitor for a period of about thirty minutes to about four hours. Typically, the treatment of the cells with the metabolic inhibitor is for one hour prior to adding the compound to be screened for anti-cancer properties. However, simultaneous treatment with the metabolic inhibitor and the compound being screened should provide satisfactory results. […] ATP synthesis in cells occurs over multiple biochemical pathways. These pathways are very responsive to metabolic inhibitors and/or changes in available nutrients. By incorporating a metabolic inhibitor which is known to impact certain pathways, the disclosed method provides for measurement of a compound's direct effects on the remaining metabolic pathways available for ATP synthesis in the cell.
(§2) Following treatment of the control and test cells with the metabolic inhibitor, the method calls for addition of the compound to be screened for anti-cancer properties to the cells. Following addition of the compound of interest, the assay is allowed to continue for about one hour to about four hours or depending on the luminescing agent up to eighteen hours. However, approximately 60 minutes will be sufficient to determine the ATP inhibiting effect of the compound to be screened on the cells. Following completion of the selected time period, the ATP level within the cell is determined. ATP levels can be determined by luminescence according to standard measuring procedures, i.e. the luminescence level of the assay from the living cells treated with the two component composition is compared to the luminescence level of the assay from the living cells without the two component composition, i.e., the control experiment. Thus, the ATP levels are determined without killing the cells during the incubation of the cells in the presence of the compound of interest. As a result, the measured reduction in ATP level corresponds directly to the inhibition of the metabolic pathways uninhibited by the metabolic blocker.
(§3) A wide variety of ATP luminescing detection reagents are available commercially. So long as the reagent produces a luminescence in the presence of ATP, the reagent will be suitable for use in the present method. Suitable reagents include but are not limited to any ATP dependent luciferase such as but not limited to firefly luciferase, other modified luciferase based reagents, i.e. luciferase derivatives. According to the rapid method for determining the anti-cancer activity of a compound, a sample of living cells is distributed across a number of testing wells. Typically, 96-well plates are used; however, the number of wells is not critical to the current method. When using a 96-well plate the number of living cells will commonly be about 20,000. The sample wells contain a cell growth medium to promote cell health and growth and an additive to prevent bacterial contamination of the wells. One common example of the cell growth medium is DMEM with 10% FBS as described above. One example of the additive to prevent bacterial contamination is a solution of penicillin G and streptomycin referred to commonly as Pen-Strep. The Pen-Strep solution typically contains 5000 units of penicillin G and 5000 micrograms of streptomycin. Thus, the rapid determination of anti-cancer compounds can be carried out using the following method. • The desired number of cells are distributed in a 96-well plate containing 100 μL DMEM plus 10% FBS with optional Pen-Strep. • After 24 hours, cells are treated with the compound of interest or a 5% solution of dimethyl sulfoxide (DMSO) in water as a control. • The time period for exposure to the compound of interest and the DMSO control will vary depending on the luminescing detection reagent. […]
On the technique in general: Cellular ATP, detected with luciferase, serves as a proxy for viable cell number.
For `O=S(=O)(NCc1c[nH]c2ccccc12)c1ccc(C(F)(F)F)cc1` [Compound 24, N-(1H-indol-3-ylmethyl)-4-(trifluoromethyl)benzenesulfonamide], the “POC (percent of control) MCF7” value is recorded as 55.7% of control.

The assay is the same for the next values; noted with them: compound 100 uM + rotenone (approximately 1.25 μM), two hour incubation.
`O=S(=O)(NCc1c[nH]c2ccccc12)c1ccc(C(F)(F)F)cc1` [Compound 24, N-(1H-indol-3-ylmethyl)-4-(trifluoromethyl)benzenesulfonamide]: the “POC (percent of control) MCF7” value is 66.5% of control.

A further assay concerns MDA-MB (breast cancer). The assay is described as above. Conditions: 2 h; compound alone, 100 uM, two hour incubation, control DMSO; read-out: POC (percent of control) MDA-MB. The format is cell-based.
Excerpt: as §1, §2, §3
Consider `O=S(=O)(NCc1c[nH]c2ccccc12)c1ccc(C(F)(F)F)cc1` [Compound 24, N-(1H-indol-3-ylmethyl)-4-(trifluoromethyl)benzenesulfonamide], for which the activity at 100 µM came out at 96.4%.

Staying with this assay, now noted: compound 100 uM + 2DG (about 10-20 mM), two hour incubation.
Take `O=S(=O)(NCc1c[nH]c2ccccc12)c1ccc(C(F)(F)F)cc1` [Compound 24, N-(1H-indol-3-ylmethyl)-4-(trifluoromethyl)benzenesulfonamide]: the “POC (percent of control) MDA-MB” value is reported as 41.5% of control.

The same assay, now with this note: compound 100 uM + rotenone (approximately 1.25 μM), two hour incubation.
For the compound `O=S(=O)(NCc1c[nH]c2ccccc12)c1ccc(C(F)(F)F)cc1` [Compound 24, N-(1H-indol-3-ylmethyl)-4-(trifluoromethyl)benzenesulfonamide], the “POC (percent of control) MDA-MB” value was 49.7% of control.

The test system of a further assay is NCI-H196 (lung cancer). The assay is described as above. As to conditions: NCI-H196, 2 h; compound alone, 100 uM, two hour incubation, control DMSO; read-out: POC (percent of control) NCI-H196. The format is cell-based.
Excerpt: as §1, §2, §3
As to `O=S(=O)(NCc1c[nH]c2ccccc12)c1ccc(C(F)(F)F)cc1` [Compound 24, N-(1H-indol-3-ylmethyl)-4-(trifluoromethyl)benzenesulfonamide], the activity at 100 µM worked out at 172%.

The assay is the same for the next values; noted with them: compound 100 uM + 2DG (about 10-20 mM), two hour incubation.
Turning to `O=S(=O)(NCc1c[nH]c2ccccc12)c1ccc(C(F)(F)F)cc1` [Compound 24, N-(1H-indol-3-ylmethyl)-4-(trifluoromethyl)benzenesulfonamide], the “POC (percent of control) NCI-H196” value is given as 54.6% of control.

The same assay, now with this note: compound 100 uM + rotenone (approximately 1.25 μM), two hour incubation.
For `O=S(=O)(NCc1c[nH]c2ccccc12)c1ccc(C(F)(F)F)cc1` [Compound 24, N-(1H-indol-3-ylmethyl)-4-(trifluoromethyl)benzenesulfonamide], the “POC (percent of control) NCI-H196” value is on record as 73.3% of control.

The subject of a further assay is PC3 (prostate cancer). The assay is described as above. The format is cell-based. Conditions: 2 h; compound alone, 100 uM, two hour incubation, control DMSO; read-out: POC (percent of control) PC3.
Excerpt: as §1, §2, §3
Turning to `O=S(=O)(NCc1c[nH]c2ccccc12)c1ccc(C(F)(F)F)cc1` [Compound 24, N-(1H-indol-3-ylmethyl)-4-(trifluoromethyl)benzenesulfonamide], the activity at 100 µM came to 54.6%.

Still in this assay, the particulars now being: compound 100 uM + 2DG (about 10-20 mM), two hour incubation.
Consider `O=S(=O)(NCc1c[nH]c2ccccc12)c1ccc(C(F)(F)F)cc1` [Compound 24, N-(1H-indol-3-ylmethyl)-4-(trifluoromethyl)benzenesulfonamide], for which the “POC (percent of control) PC3” value is given as 52.5% of control.

The assay is the same for the next values; noted with them: compound 100 uM + rotenone (approximately 1.25 μM), two hour incubation.
On to `O=S(=O)(NCc1c[nH]c2ccccc12)c1ccc(C(F)(F)F)cc1` [Compound 24, N-(1H-indol-3-ylmethyl)-4-(trifluoromethyl)benzenesulfonamide], for which the “POC (percent of control) PC3” value is recorded as 47.5% of control.

Another assay has as its system SkBr3 (breast cancer). The description is as above. Conditions: Homo sapiens, SK-BR-3, 2 h; compound alone, 100 uM, two hour incubation, control DMSO; read-out: POC (percent of control) SkBr3. The format is cell-based.
Excerpt: as §1, §2, §3
In the case of `O=S(=O)(NCc1c[nH]c2ccccc12)c1ccc(C(F)(F)F)cc1` [Compound 24, N-(1H-indol-3-ylmethyl)-4-(trifluoromethyl)benzenesulfonamide], the activity at 100 µM amounted to 93.4%.

The same assay, now with this note: compound 100 uM + 2DG (about 10-20 mM), two hour incubation.
For the compound `O=S(=O)(NCc1c[nH]c2ccccc12)c1ccc(C(F)(F)F)cc1` [Compound 24, N-(1H-indol-3-ylmethyl)-4-(trifluoromethyl)benzenesulfonamide], the “POC (percent of control) SkBr3” value was 66.5% of control.

Still in this assay, the particulars now being: compound 100 uM + rotenone (approximately 1.25 μM), two hour incubation.
Regarding `O=S(=O)(NCc1c[nH]c2ccccc12)c1ccc(C(F)(F)F)cc1` [Compound 24, N-(1H-indol-3-ylmethyl)-4-(trifluoromethyl)benzenesulfonamide], the “POC (percent of control) SkBr3” value was 67.2% of control.

The next assay deals with T47D (breast cancer). The assay is described as above. Conditions: Homo sapiens, T47D, 2 h; compound alone, 100 uM, two hour incubation, control DMSO; read-out: POC (percent of control) T47D. The assay is classed as cell-based.
Excerpt: as §1, §2, §3
For `O=S(=O)(NCc1c[nH]c2ccccc12)c1ccc(C(F)(F)F)cc1` [Compound 24, N-(1H-indol-3-ylmethyl)-4-(trifluoromethyl)benzenesulfonamide], the activity at 100 µM stood at 70.6%.

Still in this assay, the particulars now being: compound 100 uM + 2DG (about 10-20 mM), two hour incubation.
Regarding `O=S(=O)(NCc1c[nH]c2ccccc12)c1ccc(C(F)(F)F)cc1` [Compound 24, N-(1H-indol-3-ylmethyl)-4-(trifluoromethyl)benzenesulfonamide], the “POC (percent of control) T47D” value is on record as 49.7% of control.

Still in this assay, the particulars now being: compound 100 uM + rotenone (approximately 1.25 μM), two hour incubation.
With `O=S(=O)(NCc1c[nH]c2ccccc12)c1ccc(C(F)(F)F)cc1` [Compound 24, N-(1H-indol-3-ylmethyl)-4-(trifluoromethyl)benzenesulfonamide], the “POC (percent of control) T47D” value was 65.5% of control.
